{"source": "patent US20160243223A1", "about": "“METHODS FOR TREATING CANCERS COMPRISING K-RAS MUTATIONS” (OncoMed Pharmaceuticals, Inc., priority 2009, published 2016)", "molecules": {"B1": {"name": "21M18 H7L2: humanized form of the murine 21M18 antibody; anti-human DLL4 antibody (antibody, V domains shown)", "VH": "QVQLVQSGAEVKKPGASVKISCKASGYSFTAYYIHWVKQAPGQGLEWIGYISSYNGATNYNQKFKGRVTFTTDTSTSTAYMELRSLRSDDTAVYYCARDYDYDVGMDYWGQGTLVTVSS", "VL": "DIVMTQSPDSLAVSLGERATISCRASESVDNYGISFMKWFQQKPGQPPKLLIYAASNQGSGVPDRFSGSGSGTDFTLTISSLQAEDVAVYYCQQSKEVPWTFGGGTKVEIK"}}, "key": {"[1]": {"test_system": "C9 colon tumor", "assay": "C9 colon tumor recurrence xenograft model", "assay_type": "in vivo, NOD/SCID mice", "details": "treatment from 2 days after injection; antibody 10 mg/kg twice a week, irinotecan […] once a week, intraperitoneally; FIG. 4", "method": "Starting 2 days after injection, mice were treated with irinotecan alone (Δ) or anti-human DLL4 antibody (21M18 […]) plus irinotecan (▾). Treatment in both groups was discontinued on the indicated day and tumor growth was monitored for an additional period of time. […] Both antibodies and chemotherapeutic agents were administered intraperitoneally. Tumor growth was measured with electronic calipers at the indicated time points."}, "[2]": {"test_system": "PN8 pancreatic tumor", "assay": "PN8 pancreatic tumor recurrence xenograft model after gemcitabine", "assay_type": "in vivo, NOD/SCID mice", "details": "after gemcitabine 100 mg/kg once a week for 4 weeks; antibodies 10 mg/kg once a week from day 53; vs control antibody; FIG. 5", "method": "The PN8 pancreatic tumor was determined to have a K-ras mutation, a glycine to aspartic acid mutation at codon 12, that is a known activating mutation. Anti-DLL4 antibodies were tested for efficacy in this xenograft tumor model. Dissociated PN8 pancreatic tumor cells (10,000 cells) were injected subcutaneously into the flanks of 6-8 week old NOD/SCID mice. Tumors were allowed to grow for 28 days until they reached an average volume of 173 mm^3. […] On day 53, the gemcitabine treatments were stopped and antibody treatments initiated. Mice were treated with control antibody ([…]), anti-mouse DLL4 antibody (21R30) (▾), anti-human DLL4 antibody (21M18 H7L2) (▴), or a combination of anti-mouse DLL4 antibody and anti-human DLL4 antibody (21R30+21M18 H7L2) (□). […] Both antibodies and chemotherapeutic agents were administered intraperitoneally. Tumor growth was measured with electronic calipers at the indicated time points."}}}
{"molecule": "CCc1c2c(nc3ccc(OC(=O)N4CCC(N5CCCCC5)CC4)cc13)-c1cc3c(c(=O)n1C2)COC(=O)[C@]3(O)CC", "note": "[Irinotecan, irinotecan]", "values": [{"measurement": "tumor growth after cessation of treatment", "setting": "[1]", "value": "tumor growth progressed"}]}
{"molecule": "B1", "values": [{"measurement": "tumor recurrence after chemotherapy", "setting": "[2]", "value": "more substantial effect in inhibiting and/or delaying tumor re-growth"}]}
